Experiment [1] concerns the target T1, Programmed cell death protein 1/Programmed cell death 1 ligand 1 (Homo sapiens, UniProt Q9NZQ7). Description: Inhibition of human PD-1/PD-L1 interaction incubated for 1 hr by HTRF assay. The format is protein-complex assay. For orientation: In TR-FRET formats the signal depends on donor and acceptor labels being close together.
In experiment [2] the test system is PBMC. Description: Induction of T cell activation in human PBMC cells co-cultured with CHO/TCRAct/PD-L1 cells assessed as increase in the percentage of CD69+/CD8+ cells at 10 uM incubated for 48 hrs by flow cytometry analysis. In kind it is functional, cell-based. For orientation: In flow cytometry, cells or beads pass a laser one at a time.
The target of experiment [3] is T1, Programmed cell death protein 1/Programmed cell death 1 ligand 1. Kind of experiment: (§1) Inhibition of PD-1/PD-L1 interaction in human Jurkat T cells co-cultured with CHO/TCRAct/PDL1 cells assessed as restoration of T cell activation measured for 6 hrs by luminescence based immune checkpoint blockade assay.
In experiment [4] the target is T2, Programmed cell death protein 1/Programmed cell death 1 ligand 1 (Homo sapiens) (UniProt Q15116+Q9NZQ7). The description is as §1. The conditions noted are these: dose 0.1-100 µM.
Experiment [5] deals with PBMC. Kind of experiment: Induction of T cell activation in human PBMC cells co-cultured with CHO/TCRAct/PD-L1 cells assessed as increase in the percentage of CD25+/CD4+ cells at 10 uM incubated for 48 hrs by flow cytometry analysis. The format is functional, cell-based.
Experiment [6] has as its system PBMC. Kind of experiment: Induction of T cell activation in human PBMC cells co-cultured with CHO/TCRAct/PD-L1 cells assessed as increase in PD-1 positive cells at 10 uM incubated for 48 hrs by flow cytometry analysis. The format is functional, cell-based.
The subject of experiment [7] is PBMC. Description: Induction of T cell activation in human PBMC cells co-cultured with CHO/TCRAct/PD-L1 cells assessed as increase in HLA-DR positive cells at 10 uM incubated for 48 hrs by flow cytometry analysis. In kind it is functional, cell-based.
The target in experiment [8] is T2, Programmed cell death protein 1/Programmed cell death 1 ligand 1 (Homo sapiens). Description: Inhibition of human PD-1/PD-L1 interaction assessed as residual activity at 500 nM for 1 hr by HTRF assay relative to control. In kind it is protein-complex assay.

The source made the active and inactive calls. No cut-off for these calls is given here.

T1 sequence (Q15116 whole entry): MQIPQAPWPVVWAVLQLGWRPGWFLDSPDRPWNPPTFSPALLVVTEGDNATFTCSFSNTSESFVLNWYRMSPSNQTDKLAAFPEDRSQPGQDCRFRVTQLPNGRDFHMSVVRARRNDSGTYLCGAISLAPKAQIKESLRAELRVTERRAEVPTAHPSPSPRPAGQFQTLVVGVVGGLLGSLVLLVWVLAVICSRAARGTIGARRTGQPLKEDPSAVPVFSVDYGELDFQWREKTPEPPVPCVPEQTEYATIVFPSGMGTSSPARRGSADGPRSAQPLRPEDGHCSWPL
T1 sequence (Q9NZQ7 whole entry): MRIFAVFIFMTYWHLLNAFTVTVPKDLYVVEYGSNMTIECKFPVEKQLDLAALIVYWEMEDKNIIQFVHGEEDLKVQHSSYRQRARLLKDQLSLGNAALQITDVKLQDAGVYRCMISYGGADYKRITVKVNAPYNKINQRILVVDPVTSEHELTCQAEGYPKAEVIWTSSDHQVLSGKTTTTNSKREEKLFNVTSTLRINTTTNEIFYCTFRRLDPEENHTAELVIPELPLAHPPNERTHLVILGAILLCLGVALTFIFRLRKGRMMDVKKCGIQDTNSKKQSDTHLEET

On to `Cc1c(NC(=O)c2ccc(CNC(CO)(CO)CO)cn2)cccc1-c1ccc2c(c1)OCCN2C`, for which the IC50 (as a rule, the concentration at which inhibition is half-maximal) in experiment [1] came out at 0.077 µM. Besides, the outcome in experiment [2], in experiment [5], in experiment [6] and in experiment [7] was Active. Besides, the EC50 (as a rule, the concentration needed to bring the measured effect to its halfway point) in experiment [3] stood at 25.8 µM. The inhibition entry in experiment [4] is “Dose-Dependent Effect”.

In the case of `Cc1c(NC(=O)c2ccc(CNC(CO)CO)cn2)cccc1-c1ccc2c(c1)OCCN2C(=O)c1ccc(CNC(CO)CO)cc1`, the Activity in experiment [8] amounted to 70%.

`O=C(O)[C@@H]1CCCCN1Cc1ccc(OCc2cccc(-c3ccccc3)c2Br)c(Br)c1`: the EC50 in experiment [3] turned out to be 6.6 µM.

In experiment [1], `Cc1c(NC(=O)c2ccc(CNC(CO)CO)cn2)cccc1-c1ccc2c(c1)OCCN2C` yielded an IC50 of 0.109 µM. Further, the inhibition result in experiment [4] is “inactive”.

Turning to `Cc1c(NC(=O)c2ccc(CNC(CO)(CO)CO)cn2)cccc1-c1ccc2c(c1)OCCN2C(=O)c1ccc(CNC(CO)(CO)CO)cc1`, the Activity in experiment [8] is 92%.

For `Cc1c(COc2ccc(CNC(CO)(CO)CO)cc2)cccc1-c1ccc2c(c1)OCCN2C(=O)c1ccc(CNC(CO)(CO)CO)cc1`, the Activity in experiment [8] was determined as 83%.

Take `Cc1c(COc2ccc(CNC(CO)CO)cc2)cccc1-c1ccc2c(c1)OCCN2C(=O)c1ccc(CNC(CO)CO)cc1`: the Activity in experiment [8] came to 84%.

For the origin of these results see ChEMBL document CHEMBL5584261, “N-methylmorpholine incorporation into the structure of biphenyl leads to the bioactive inhibitor of PD-1/PD-L1 interaction” (Bioorg Med Chem Lett, 2024).
